What was measured:
[1] = test system: control HMLER cells; experiment: Cell Titer Glo viability of control HMLER cells; format: cell-based; details: Homo sapiens; 72-hour incubation; read-out: HMLER IC50
From the text: An engineered cancer cell line HMLER as an isogenic screening system was employed to identify compounds that are selectively toxic to the FOXC2 positive genotype. HMLER cells are derived from mammary epithelial cells (HMECs), but are virally transformed with the […] oncogene (G12V), human telomerase reverse transcriptase (hTERT), and SV40 large-T antigen (B. Elenbaas, B. et al. Genes Dev. 15 (2001) 50-65). Expression of these genes endows HMLER cells with functional immortality and tumorigenic potential at high seeding number (>10^6 cells; Hollier (2013)). […]
For high throughput screening, FOXC2-HMLER and HMLER cells were plated at 10^3 cells per well in white 384-well plates in 50 μL of MEGM medium (Lonza). […] After 72-hour incubation, 30 μL of a Cell Titer Glo solution (diluted 1:6 in water, Promega) was dispensed into each well and luminance values were recorded using an Envision plate reader. […]
More specifically, in the high throughput screening assay above, each cell line was plated at 1,000 cells per well in 384-well plates, treated for 72 hours with 2 μM of test compound, and the viability of each line was determined in parallel by Cell Titer Glo (Promega) luminance measurements. […]

[2] = test system: FOXC2-HMLER, SNAIL-HMLER, SUM159, and MDA-MB-231 cells; experiment: In vitro mammosphere formation assay; format: cell-based, human; details: 1 μM compound during assay (14 days)
Description: FIG. 3: Quantification of mammospheres from an in vitro mammosphere formation assay with the indicated cell types. Pretreatment indicates a 72-hour treatment with 1 μM Compound 1 before plating in mammosphere formation conditions. The expression “during assay” indicates 1 μM compound treatment during the mammosphere assay (14 days) (n=3, mean and s.d.).
Epithelial-mesenchymal transition (EMT) induction endows breast cancer cells with the ability to grow as mammospheres in culture (Mani (2008)).

[3] = biological target: T1, VIM (Homo sapiens, UniProt P08670); experiment: Immunofluorescent analysis of VIM filamentous architecture in HUVECs; format: cell-based; details: one-hour treatment
T1 construct: endogenous in cells; host or cells: FOXC2-HMLER

[4] = biological target: T1, VIM; experiment: Western blotting / immunofluorescence of VIM protein status in FOXC2-HMLER cells; format: cell-based
Description: Western blotting was performed essentially as described previously (M. J. Bollong et al. ACS Chem. Biol. 10 (2015) 2193-2198). Cells were collected by brief trypsinization and centrifugation at 500 g for 5 minutes. Cells were lysed by the addition of RIPA buffer with protease and phosphatase inhibitors (Roche). Lysates were incubated on ice for 30 minutes before eliminating insoluble protein content by centrifugation at 12,000 g for 5 minutes at 4° C. Protein concentrations were determined from absorbance values obtained by a Nanodrop instrument. Equal amounts of protein were then mixed with 2× loading buffer (100 mM TRIS-HCl, 1% SDS, 10% glycerol, 0.1% bromophenol blue 10%-mercaptoethanol) and exposed to 95° C. for 5 minutes. Protein was separated by SDS-PAGE using 4-12% Bis-Tris Gels (Invitrogen) and then transferred to PVDF membranes (Invitrogen) using semi-dry transfer. Membranes were blocked for 1 hour at room temperature in 5% non-fat dry milk in TBST (Tris buffered saline with 0.1% Tween 20). Membranes were incubated overnight with primary antibodies in blocking buffer overnight at the dilutions ranging from 1:500 to 1:2000. After 3 washes with TBST, membranes were then exposed to HRP-conjugated secondary antibodies (1:5000 in blocking buffer, Sigma) for one hour followed by one hour of additional washing with TBST. Relative protein content was visualized using film and SuperSignal West Dura Substrate. For VIM degradation blots, 20-60 μg of protein content was loaded per gel lane and the anti-VIM antibody V9 (ab8069) was used to blot for VIM protein content. Phospho-protein blots were performed as above with the exception that primary antibodies were incubated in 5% bovine serum albumin in TBST instead of milk.
We performed Western blotting analysis of FOXC2-HMLER cells treated for 24 hours with Compound 1 with commercially available antibodies targeting specific phosphorylated VIM species (P-S39, P-S56, P-S83).
In contrast, only a small fraction of cells undergoing mitosis stained positive for P-S56-VIM in DMSO-treated controls, consistent with previous reports identifying phosphorylation at S56 as a modification catalyzed by cyclin dependent kinase 1 (CDK1; FIG. 6) (T. Yamaguchi, T. et al., J. Cell Biol. 171 (2005) 431-436.

[5] = test system: FOXC2-HMLER cells; experiment: Confocal imaging of thymidine synced FOXC2-HMLER cells at metaphase; format: cell-based, human
From the text: Because Compound 1 induces a hyper-phosphorylated VIM phenotype, we sought to determine if Compound 1's engagement of VIM might interfere at an alternative stage of mitosis. We therefore performed time course confocal imaging studies of Compound 1 treated FOXC2-HMLER cells after their release from thymidine blocking-based cell cycle synchronization.
Compound 1 treatment also disrupted the ability of β-tubulin to faithfully form the fine spindle microtubules of the mitotic spindle, instead resulting in a compressed phenotype with radiating projections connecting unaligned chromosomes. To assess the uniqueness of this phenotype, we evaluated the metaphase phenotypes of other chemical inhibitors which have shown to alter mitotic progression. These included inhibitors of centromere-associated protein E (CENP-E, also called kinesin-7, GSK92395), kinesin spindle protein (KSP, also called Eg5, Ispinesib), polo like kinases (PLK1/2/3, BI2536), and aurora kinases (AURKA/B/C, VX-680).

[6] = FOXC2-HMLER cells, 24 hours, 500 nM, Western blotting
[7] = FOXC2-HMLER cells, Western blotting

T1 sequence (P08670 whole entry): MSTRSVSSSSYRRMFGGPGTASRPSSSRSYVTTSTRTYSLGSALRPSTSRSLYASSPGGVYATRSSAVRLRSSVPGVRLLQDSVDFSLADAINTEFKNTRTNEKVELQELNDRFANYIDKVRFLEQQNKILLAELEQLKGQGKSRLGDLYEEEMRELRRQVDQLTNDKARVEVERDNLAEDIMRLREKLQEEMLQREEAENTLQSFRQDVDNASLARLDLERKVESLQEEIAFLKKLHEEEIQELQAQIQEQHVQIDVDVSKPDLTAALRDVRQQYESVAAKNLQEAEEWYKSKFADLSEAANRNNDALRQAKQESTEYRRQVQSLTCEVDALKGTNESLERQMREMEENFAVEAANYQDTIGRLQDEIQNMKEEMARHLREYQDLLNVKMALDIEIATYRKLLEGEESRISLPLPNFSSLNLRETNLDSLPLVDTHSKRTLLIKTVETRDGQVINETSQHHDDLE

Clc1cccc(N2CCN(c3cnnc4c(Cl)cccc34)CC2)c1 [Compound 1, 8-chloro-4-(4-(3-chlorophenyl)piperazin-1-yl)cinnoline]
IC50 [1]: > 20 µM | ability to form mammospheres in culture [2]: inhibited the ability | VIM filamentous architecture in HUVECs [3]: promoted the destruction of fine VIM-containing filamentous structures | P-S39- and P-S83-VIM protein content [4, 6]: modest increase | steady state levels of P-S56-VIM [4, 6]: marked increase | dibromobimane-crosslinked dimeric VIM protein content [4, 7]: dramatically reduced | lower molecular weight VIM degradation products [4, 7]: dose-dependent accumulation | P-S56-VIM positive FOXC2-HMLER cells ([4]; immunofluorescent staining): concentration dependent increase | VIM filamentous structure at metaphase [5]: collapsed VIM filamentous structure | chromosome alignment to the metaphase plate [5]: inhibited the ability of chromosomes to align to the metaphase plate

From patent publication US11759461B2, “Small molecule inhibitors of cancer stem cells and mesenchymal cancer types” (The Scripps Research Institute, priority 2017, dated 2023)
